Laboratory results from patent publication EP0061907A1, “Secondary amines, their preparation, pharmaceutical compositions containing them and their use” (BEECHAM GROUP PLC, priority 1981, dated 1982).

Columns and labels:
Format in all cases: in vivo
Female CFLP mice = experiment: Hypoglycaemic activity: blood glucose curve after subcutaneous glucose load in fasted mice; conditions: 2 hour period after glucose 1 g/kg s.c., compared with control mice given water
Procedure: Female CFLP mice, weighing approx. 25 g, were fasted for 24 hours prior to the study. The compounds under study were administered orally as an aqueous solution to each of 6 mice. 30 Minutes later a blood sample ([…]) was obtained from the tail for the analysis of blood glucose. Immediately after taking the blood sample, glucose (1 g/kg body weight) was administered subcutaneously to each mouse. 6 Mice were given water as a control. Blood samples were then obtained from each mouse at 30 minute intervals for 120 minutes. Compounds that produced a significant (P<0.05) reduction on blood glucose, compared with control mice given water, at any time interval, were considered active. The area under the blood glucose curve over the 2 hour period after the administration of the glucose was calculated for each compound and compared with the value for control animals.

genetically obese mice = experiment: Anti-obesity activity: carcass lipid of genetically obese mice after daily oral dosing for 28 days
Procedure: The compounds were administered by oral gavage in water or carboxymethyl-cellulose suspension to genetically obese mice daily for 28 days. At the end of the time the carcass composition was determined.

Male CFLP mice = experiment: Platelet aggregation inhibition activity: response of blood platelet concentration to intravenous collagen in mice; conditions: two hours before intravenous collagen
Procedure: Male CFLP mice (ca 20g, n=11 or 12) were dosed orally with compound or vehicle (controls) after an overnight fast. Two hours later each mouse received an intravenous dose of collagen ([…], pH 6-6.6). Exactly 30 sec. after injection of collagen, each mouse was placed in a chamber of C02 until respiration ceased. […] Each concentration was expressed as a per cent of that obtained in a tail blood sample taken immediately before injection of collagen.

rat ear = experiment: Anti-inflammatory activity: croton oil induced inflammation of the rat ear; conditions: topical in irritant vehicle, ear weight after 6 hours, active = significant (5% level) reduction in ear weight vs non-drug treated control
Procedure: The method used is based on that described by G. Tonelli et al (Endocrinology, 77, 625-634, 1965). An inflammation is induced in the rat ear by the application of 50 µl of a 1% solution of croton oil in tetrahydrofuran, test compounds being dissolved in the irritant vehicle. After 6 hours the inflammation is assessed by killing the animals and weighing the ears. Topical anti-inflammatory activity of a compound is generally considered to be shown when a significant (5% level) reduction in ear weight is seen compared to non-drug treated control.

CNCc1ccc(C[C@@H](C)NC[C@H](O)c2cccc(C(F)(F)F)c2)cc1 (racemic) [Example 15, (RR,SS) N-(2-(4-N'-Methylaminomethylphenyl)-1-methylethyl)-2-hydroxy-2-(3-trifluoromethylphenyl) ethanamine]
REDUCTION IN AREA UNDER BLOOD GLUCOSE CURVE (%) (Female CFLP mice; 2.5 µ mol/kg orally): 19%

CNCc1ccc(C[C@@H](C)NC[C@H](O)c2cccc(Cl)c2)cc1 (racemic) [Example 16, (RR,SS) N-(2-(4-N'-Methylaminomethylphenyl)-1-methylethyl) -2-hydroxy-2-(3-chlorophenyl) ethanamine]
g LIPID/MOUSE TREATED (genetically obese mice; 11.3 mg/kg p.o. daily for 28 days, control 22.55): 16.03 g | REDUCTION IN AREA UNDER BLOOD GLUCOSE CURVE (%) (Female CFLP mice; 2.5 µ mol/kg orally): 33%

CC(=O)Oc1ccccc1C(=O)O [Aspirin, reference compound]
% Inhibition of re-sponse to collagen (Male CFLP mice; 600(108) µmol(mg)/kg p.o.): 29 p<0.05%

CC(Cc1ccc(CN)cc1)NCC(O)c1ccccc1 (stereo not shown) [Example 1, N-(2-(4-Aminomethylphenyl)-1-methylethyl)-2-hydroxy-2-phenylethanamine]
g LIPID/MOUSE TREATED (genetically obese mice; 6.25 mg/kg p.o. daily for 28 days, control 21.52): 17.98 g | REDUCTION IN AREA UNDER BLOOD GLUCOSE CURVE (%) (Female CFLP mice; 2.5 µ mol/kg orally): 29%

CC(Cc1ccc(CN)cc1)NCC(O)c1cccc(C(F)(F)F)c1 (stereo not shown) [Example 2, N-(2-(4-Aminomethylphenyl)-1-methylethyl)-2-hydroxy-2-(3-trifluoromethylphenyl) ethanamine]
g LIPID/MOUSE TREATED (genetically obese mice; 11.8 mg/kg p.o. daily for 28 days, control 25.09): 20.87 g | REDUCTION IN AREA UNDER BLOOD GLUCOSE CURVE (%) (Female CFLP mice; 2.5 µ mol/kg orally): 24% | ACTIVITY (rat ear; 0.5 mg/rat ear): Active | % Inhibition of re-sponse to collagen (Male CFLP mice; 10 µmol/kg p.o.): 29 p<0.01%

CNCc1ccc(CC(C)NCC(O)c2cccc(C(F)(F)F)c2)cc1 (stereo not shown) [Example 3, N-(2-(4-N'-Mcthylaminomethylphenyl)-1-methylethyl)-2-hydroxy-2-(3-trifluoromethylphenyl) ethanamine]
g LIPID/MOUSE TREATED (genetically obese mice; 12.2 mg/kg p.o. daily for 28 days, control 20.98): 18.56 g | % Inhibition of re-sponse to collagen (Male CFLP mice; 10 µmol/kg p.o.): 25 p<0.02%

CC(Cc1ccc(CN(C)C)cc1)NCC(O)c1cccc(C(F)(F)F)c1 (stereo not shown) [Example 4, N-(2-(4-N'N'-Dimethylaminomethylphenyl)-1-methylethyl)-2-hydroxy-2-(3-trifluoromethylphenyl) ethanamine]
REDUCTION IN AREA UNDER BLOOD GLUCOSE CURVE (%) (Female CFLP mice; 12.5 µ mol/kg orally): 31%

CC(Cc1ccc(CN)cc1)NCC(O)c1cccc(Cl)c1 (stereo not shown) [Example 6, N-(2-(4-Aminomethylphenyl}-1-methylethyl)-2-hydroxy-2-(3-chlorophenyl) ethanamine]
g LIPID/MOUSE TREATED (genetically obese mice; 10.9 mg/kg p.o. daily for 28 days, control 18.75): 17.38 g

CNCc1ccc(CC(C)NCC(O)c2ccccc2)cc1 (stereo not shown) [Example 7, N-(2-(4-N'-Methylaminomethylphenyl)-1-methylethyl)-2-hydroxy-2-phenylethanamine]
g LIPID/MOUSE TREATED (genetically obese mice; 9.9 mg/kg p.o. daily for 28 days, control 23.13): 20.56 g

CNCc1ccc(CC(C)NCC(O)c2cccc(Cl)c2)cc1 (stereo not shown) [Example 8, N-(2-(4-N'-Methylaminomethylphenyl)-1-methylethyl)-2-hydroxy-2-(3-chlorophenyl) ethanamine]
REDUCTION IN AREA UNDER BLOOD GLUCOSE CURVE (%) (Female CFLP mice; 12.5 µ mol/kg orally): 52% | ACTIVITY (rat ear; 2 mg/rat ear): Active | % Inhibition of re-sponse to collagen (Male CFLP mice; 10 µmol/kg p.o.): 37 p<0.001%

CNCc1ccc(CC(C)NCC(O)c2cccc(F)c2)cc1 (stereo not shown) [Example 9, N-(2-(4-N'-Methylaminomethylphenyl)-1-methylethyl)-2-hydroxy-2-(3-fluorophenyl) ethanamine]
g LIPID/MOUSE TREATED (genetically obese mice; 10.8 mg/kg p.o. daily for 28 days, control 22.95): 20.63 g

CCc1cccc(C(O)CNC(C)Cc2ccc(CNC)cc2)c1 (stereo not shown) [Example 10, N-(2-(4-N'Methylaminomethylphenyl)-1-methylethly)-2-hdroxy-2-(3-ethylphenyl) ethanamine]
REDUCTION IN AREA UNDER BLOOD GLUCOSE CURVE (%) (Female CFLP mice; 100.0 µ mol/kg orally): 49%

CNCc1ccc(CC(C)NCC(O)c2cccc(Br)c2)cc1 (stereo not shown) [Example 12, N-(2-(4-N'-Methylaminomethylphenyl)-1-methylethyl)-2-hydroxy-2-(3-bromophenyl) ethanamine]
g LIPID/MOUSE TREATED (genetically obese mice; 12.5 mg/kg p.o. daily for 28 days, control 24.60): 20.38 g | REDUCTION IN AREA UNDER BLOOD GLUCOSE CURVE (%) (Female CFLP mice; 2.5 µ mol/kg orally): 37%

CNCCCc1ccc(CC(C)NCC(O)c2cccc(C(F)(F)F)c2)cc1 (stereo not shown) [Example 14, N-(2-(4-(3-N'-Methylaminopropyl)phenyl)-1-methylethyl)-2-hydroxy-2-(3-trifluoromethylphenyl) ethanamine]
REDUCTION IN AREA UNDER BLOOD GLUCOSE CURVE (%) (Female CFLP mice; 12.5 µ mol/kg orally): 46%

CN[C@@H](C)c1ccc(CC(C)NCC(O)c2cccc(Cl)c2)cc1 (stereo partly drawn) [Example 23, N-(2-(4-(1-(S)-N'-Methylaminoethyl)phenyl)-1-methylethyl)-2-hydroxy-2-(3-chlorophenyl)ethanamine]
REDUCTION IN AREA UNDER BLOOD GLUCOSE CURVE (%) (Female CFLP mice; 50 µ mol/kg orally): 26%

CN[C@H](C)c1ccc(CC(C)NCC(O)c2cccc(Cl)c2)cc1 (stereo partly drawn) [Example 24, N-(2-(4-(1-(R)-N'-Methylaminoethyl)phenyl)-1-methylethyl) -2-hydroxy-2-(3-chlorophenyl)ethanamine]
REDUCTION IN AREA UNDER BLOOD GLUCOSE CURVE (%) (Female CFLP mice; 50 µ mol/kg orally): 17%

CNC(C)Cc1ccc(CC(C)NCC(O)c2cccc(Cl)c2)cc1 (stereo not shown) [Example 25, N-(2-(4-(2-N'-Methylaminopropyl)phenyl)-1-methylethyl) -2-hydroxy-2-(3-chlorophenyl)ethanamine]
REDUCTION IN AREA UNDER BLOOD GLUCOSE CURVE (%) (Female CFLP mice; 2.5 µ mol/kg orally): 41%

CNCCCCCCc1ccc(CC(C)NCC(O)c2cccc(Cl)c2)cc1 (stereo not shown) [Example 26, N-(2-(4-(6-N'-Methylaminohexyl)phenyl)-1-methylethyl)-2-hydroxy-2-(3-chlorophenyl) ethanamine]
REDUCTION IN AREA UNDER BLOOD GLUCOSE CURVE (%) (Female CFLP mice; 2.5 µ mol/kg orally): 53%

CNCCCCc1ccc(CC(C)NCC(O)c2cccc(Cl)c2)cc1 (stereo not shown) [Example 27, N-(2-(4-(4-N'-Methylaminobutyl)phenyl)-1-methylethyl)-2-hydroxy-2-(3-chlorophenyl) ethanamine]
REDUCTION IN AREA UNDER BLOOD GLUCOSE CURVE (%) (Female CFLP mice; 2.5 µ mol/kg orally): 10%
